Measured values reported in US20100227859A1, “TRICYCLIC COMPOUNDS AS MATRIX METALLOPROTEINASE INHIBITORS” (priority 2007, published 2010).

Biological target: purified human MMP-12 enzyme (Homo sapiens, UniProt P39900)
Experiment: MMP-12 FRET assay
Assay type: biochemical
Settings: substrate 20 μM, room temperature
How it was run: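 Enzyme pre-incubated 30 min at room temperature with compound in 50 mM HEPES pH 7.4, 100 mM NaCl, 5 mM CaCl2, 0.005% Brij-35, 10% DMSO final. Reaction started with 20 μM MCA-Pro-Leu-Gly-Leu-Dpa(DNP)-Ala-Arg, and initial cleavage rate read over 30 min (λex 325, λem 395 nm). IC50 from slope-factor inhibition fit.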

purified human MMP-12 enzyme, sequence (P39900 106-470): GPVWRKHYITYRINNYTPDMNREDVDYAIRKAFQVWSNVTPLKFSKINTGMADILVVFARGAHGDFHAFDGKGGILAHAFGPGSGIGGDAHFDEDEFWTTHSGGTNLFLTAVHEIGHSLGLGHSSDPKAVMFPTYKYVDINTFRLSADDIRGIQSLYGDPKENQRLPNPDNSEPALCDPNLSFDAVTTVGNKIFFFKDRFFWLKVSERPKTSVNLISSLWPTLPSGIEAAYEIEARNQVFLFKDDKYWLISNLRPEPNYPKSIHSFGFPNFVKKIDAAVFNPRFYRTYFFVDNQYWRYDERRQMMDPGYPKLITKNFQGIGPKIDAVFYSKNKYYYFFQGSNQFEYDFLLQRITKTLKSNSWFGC

**Q.** With Cc1nc(-c2ccc(C(F)(F)F)cc2)sc1-c1ccc2oc3cc(S(=O)(=O)N[C@H](C(=O)O)C(C)C)ccc3c2c1 [Compound 164, (S)-3-methyl-2-(8-(4-methyl-2-(4-(trifluoromethyl)phenyl)thiazol-5-yl)dibenzo[b,d]furan-3-sulfonamido)butanoic acid] as the molecule, how does the IC50 read?
**A.** 12.3 nM

**Q.** How did the IC50 turn out when CCc1sc(-c2ccc3c(c2)oc2cc(S(=O)(=O)N[C@H](C(=O)O)C(C)C)ccc23)cc1Br [Compound 165, (S)-2-(7-(4-bromo-5-ethylthiophen-2-yl)dibenzo[b,d]furan-3-sulfonamido)-3-methylbutanoic acid] was run?
**A.** 1.5 nM

**Q.** CCc1ccc(-c2cc(-c3ccc4c(c3)oc3cc(S(=O)(=O)N[C@H](C(=O)O)C(C)C)ccc34)sc2CC)s1 [Compound 166, (S)-2-(7-(2′,5-diethyl-2,3′-bithiophen-5′-yl)dibenzo[b,d]furan-3-sulfonamido)-3-methylbutanoic acid] was tested. Which IC50 did it give?
**A.** 93 nM

**Q.** Which IC50 does the source give for CC(C)[C@@H](NS(=O)(=O)c1ccc2oc3cc(-c4cncnc4)ccc3c2c1)C(=O)O [Compound 167, (R)-3-methyl-2-(7-(pyrimidin-5-yl)dibenzo[b,d]furan-2-sulfonamido)butanoic acid] here?
**A.** < 1.5 nM

**Q.** COc1ncc(-c2ccc3c(c2)oc2ccc(S(=O)(=O)N[C@@H](C(=O)O)C(C)C)cc23)cn1 [Compound 168, (R)-2-(7-(2-methoxypyrimidin-5-yl)dibenzo[b,d]furan-2-sulfonamido)-3-methylbutanoic acid] was tested. Which IC50 did it give?
**A.** 1.5 nM

**Q.** For Cc1nc(C)c(-c2ccc3c(c2)oc2ccc(S(=O)(=O)N[C@@H](C(=O)O)C(C)C)cc23)s1 [Compound 169, (R)-2-(7-(2,4-dimethylthiazol-5-yl)dibenzo[b,d]furan-2-sulfonamido)-3-methylbutanoic acid], which IC50 is on record?
**A.** 11 nM

**Q.** For CCC(C)Cn1cc(-c2ccc3c(c2)oc2ccc(S(=O)(=O)N[C@@H](C(=O)O)C(C)C)cc23)cn1 (stereo partly drawn) [Compound 170, (2R)-3-methyl-2-(7-(1-(2-methylbutyl)-1H-pyrazol-4-yl)dibenzo[b,d]furan-2-sulfonamido)butanoic acid], which IC50 is on record?
**A.** 5.2 nM

**Q.** CCCn1cc(-c2ccc3c(c2)oc2ccc(S(=O)(=O)N[C@@H](C(=O)O)C(C)C)cc23)cn1 [Compound 171, (R)-3-methyl-2-(7-(1-propyl-1H-pyrazol-4-yl)dibenzo[b,d]furan-2-sulfonamido)butanoic acid] was tested. Which IC50 did it give?
**A.** 3.9 nM

**Q.** How did the IC50 turn out when CC(C)[C@@H](NS(=O)(=O)c1ccc2oc3cc(-c4cnn(CCN5CCOCC5)c4)ccc3c2c1)C(=O)O [Compound 172, (R)-3-methyl-2-(7-(1-(2-morpholinoethyl)-1H-pyrazol-4-yl)dibenzo[b,d]furan-2-sulfonamido)butanoic acid] was run?
**A.** 19 nM

**Q.** CC(C)Cn1cc(-c2ccc3c(c2)oc2ccc(S(=O)(=O)N[C@@H](C(=O)O)C(C)C)cc23)cn1 [Compound 173, (R)-2-(7-(1-isobutyl-1H-pyrazol-4-yl)dibenzo[b,d]furan-2-sulfonamido)-3-methylbutanoic acid] was tested. Which IC50 did it give?
**A.** 80 nM

**Q.** With Cc1nn(C)c(C)c1-c1ccc2c(c1)oc1ccc(S(=O)(=O)N[C@@H](C(=O)O)C(C)C)cc12 [Compound 174, (R)-3-methyl-2-(7-(1,3,5-trimethyl-1H-pyrazol-4-yl)dibenzo[b,d]furan-2-sulfonamido)butanoic acid] as the molecule, how does the IC50 read?
**A.** 227 nM

**Q.** CC(C)[C@@H](NS(=O)(=O)c1ccc2oc3cc(-c4cnn(Cc5ccccc5)c4)ccc3c2c1)C(=O)O [Compound 175, (R)-2-(7-(1-benzyl-1H-pyrazol-4-yl)dibenzo[b,d]furan-2-sulfonamido)-3-methylbutanoic acid] was tested. Which IC50 did it give?
**A.** 12 nM

**Q.** With Cc1nc(-c2ccccc2)sc1-c1ccc2c(c1)oc1ccc(S(=O)(=O)N[C@@H](C(=O)O)C(C)C)cc12 [Compound 176, (R)-3-methyl-2-(7-(4-methyl-2-phenylthiazol-5-yl)dibenzo[b,d]furan-2-sulfonamido)butanoic acid] as the molecule, how does the IC50 read?
**A.** 97 nM

**Q.** How did the IC50 turn out when Cc1nc(-c2ccc(C(F)(F)F)cc2)sc1-c1ccc2c(c1)oc1ccc(S(=O)(=O)N[C@@H](C(=O)O)C(C)C)cc12 [Compound 177, (R)-3-methyl-2-(7-(4-methyl-2-(4-(trifluoromethyl)phenyl)thiazol-5-yl)dibenzo[b,d]furan-2-sulfonamido)butanoic acid] was run?
**A.** 740 nM

**Q.** Which IC50 does the source give for CC(C)[C@H](NS(=O)(=O)c1ccc2c(c1)oc1ccc(-c3cnc(Cl)s3)cc12)C(=O)O [Compound 179, (S)-2-(8-(2-chlorothiazol-5-yl)dibenzo[b,d]furan-3-sulfonamido)-3-methylbutanoic acid] here?
**A.** < 1.5 nM

**Q.** With CC(C)[C@H](NS(=O)(=O)c1ccc2c(c1)oc1ccc(-c3csc(Cl)n3)cc12)C(=O)O [Compound 180, (S)-2-(8-(2-chlorothiazol-4-yl)dibenzo[b,d]furan-3-sulfonamido)-3-methylbutanoic acid] as the molecule, how does the IC50 read?
**A.** < 1.5 nM

**Q.** For CC(C)[C@H](NS(=O)(=O)c1ccc2c(c1)oc1cc(-c3cnc(Cl)s3)ccc12)C(=O)O [Compound 181, (S)-2-(7-(2-chlorothiazol-5-yl)dibenzo[b,d]furan-3-sulfonamido)-3-methylbutanoic acid], which IC50 is on record?
**A.** < 1.5 nM

**Q.** CC(C)[C@H](NS(=O)(=O)c1ccc2c(c1)sc1cc(-c3ccc(Cl)o3)ccc12)C(=O)O [Compound 182, (S)-2-(7-(5-chlorofuran-2-yl)dibenzo[b,d]thiophene-3-sulfonamido)-3-methylbutanoic acid] was tested. Which IC50 did it give?
**A.** < 1.5 nM

**Q.** With CC(C)[C@H](NS(=O)(=O)c1ccc2c(c1)oc1cc(C(=N)NO)ccc12)C(=O)O [Compound 186, (S)-2-(7-(N-hydroxycarbamimidoyl)dibenzo[b,d]furan-3-sulfonamido)-3-methylbutanoic acid] as the molecule, how does the IC50 read?
**A.** 1.9 nM

**Q.** With CC(C)[C@H](NS(=O)(=O)c1ccc2c(c1)oc1cc(-c3noc(C4CC4)n3)ccc12)C(=O)O [Compound 187, (S)-2-(7-(5-cyclopropyl-1,2,4-oxadiazol-3-yl)dibenzo[b,d]furan-3-sulfonamido)-3-methylbutanoic acid] as the molecule, how does the IC50 read?
**A.** 5.5 nM

**Q.** CC(C)[C@H](NS(=O)(=O)c1ccc2c(c1)oc1cc(-c3noc(-c4ccc(F)cc4)n3)ccc12)C(=O)O [Compound 188, (S)-2-(7-(5-(4-fluorophenyl)-1,2,4-oxadiazol-3-yl)dibenzo[b,d]furan-3-sulfonamido)-3-methylbutanoic acid] was tested. Which IC50 did it give?
**A.** 8.6 nM

**Q.** Which IC50 does the source give for CC(C)[C@@H](NS(=O)(=O)c1ccc2oc3cc(-c4noc(CC(C)(C)C)n4)ccc3c2c1)C(=O)O [Compound 189, (R)-3-methyl-2-(7-(5-neopentyl-1,2,4-oxadiazol-3-yl)dibenzo[b,d]furan-2-sulfonamido)butanoic acid] here?
**A.** 4.5 nM

**Q.** CC(C)[C@@H](NS(=O)(=O)c1ccc2oc3cc(-c4noc(C5CCCC5)n4)ccc3c2c1)C(=O)O [Compound 190, (R)-2-(7-(5-cyclopentyl-1,2,4-oxadiazol-3-yl)dibenzo[b,d]furan-2-sulfonamido)-3-methylbutanoic acid] was tested. Which IC50 did it give?
**A.** 2.2 nM

**Q.** CC(C)[C@@H](NS(=O)(=O)c1ccc2oc3cc(-c4noc(CC5CCCC5)n4)ccc3c2c1)C(=O)O [Compound 191, (R)-2-(7-(5-(cyclopentylmethyl)-1,2,4-oxadiazol-3-yl)dibenzo[b,d]furan-2-sulfonamido)-3-methylbutanoic acid] was tested. Which IC50 did it give?
**A.** 3.3 nM

**Q.** How did the IC50 turn out when CC(C)[C@@H](NS(=O)(=O)c1ccc2oc3cc(-c4noc(C5CCCCC5)n4)ccc3c2c1)C(=O)O [Compound 192, (R)-2-(7-(5-cyclohexyl-1,2,4-oxadiazol-3-yl)dibenzo[b,d]furan-2-sulfonamido)-3-methylbutanoic acid] was run?
**A.** 7.2 nM

**Q.** CC(C)[C@H](NS(=O)(=O)c1ccc2c(c1)sc1cc(-c3ccco3)ccc12)C(=O)O [Compound 193, (S)-2-(7-(furan-2-yl)dibenzo[b,d]thiophene-3-sulfonamido)-3-methylbutanoic acid] was tested. Which IC50 did it give?
**A.** < 1.5 nM

**Q.** For CC(C)[C@H](NS(=O)(=O)c1ccc2c(c1)oc1ccc(-c3nc4ccccc4o3)cc12)C(=O)O [Compound 194, (S)-2-(8-(benzo[d]oxazol-2-yl)dibenzo[b,d]furan-3-sulfonamido)-3-methylbutanoic acid], which IC50 is on record?
**A.** 4.6 nM

**Q.** With CC(C)[C@H](NS(=O)(=O)c1ccc2c(c1)oc1ccc(-c3ccc4oc5ccccc5c4c3)cc12)C(=O)O [Compound 195, (S)-2-(2,2′-bidibenzo[b,d]furan-7-sulfonamido)-3-methylbutanoic acid] as the molecule, how does the IC50 read?
**A.** 7.3 nM

**Q.** With CCc1ccc(-c2ccc3oc4cc(S(=O)(=O)N[C@H](C(=O)O)C(C)C)ccc4c3c2)s1 [Compound 196, (S)-2-(8-(5-ethylthiophen-2-yl)dibenzo[b,d]furan-3-sulfonamido)-3-methylbutanoic acid] as the molecule, how does the IC50 read?
**A.** < 1.5 nM

**Q.** How did the IC50 turn out when CCCc1ccc(-c2ccc3oc4cc(S(=O)(=O)N[C@H](C(=O)O)C(C)C)ccc4c3c2)s1 [Compound 197, (S)-3-methyl-2-(8-(5-propylthiophen-2-yl)dibenzo[b,d]furan-3-sulfonamido)butanoic acid] was run?
**A.** < 1.5 nM

**Q.** CC(C)[C@H](NS(=O)(=O)c1ccc2c(c1)oc1ccc(-c3ccc(C(C)(C)C)o3)cc12)C(=O)O [Compound 198, (S)-2-(8-(5-tert-butylfuran-2-yl)dibenzo[b,d]furan-3-sulfonamido)-3-methylbutanoic acid] was tested. Which IC50 did it give?
**A.** 5.6 nM

**Q.** Which IC50 does the source give for Cc1nc(-c2ccc(-c3ccc4oc5cc(S(=O)(=O)N[C@H](C(=O)O)C(C)C)ccc5c4c3)s2)no1 [Compound 199, (S)-3-methyl-2-(8-(5-(5-methyl-1,2,4-oxadiazol-3-yl)thiophen-2-yl)dibenzo[b,d]furan-3-sulfonamido)butanoic acid] here?
**A.** < 1.5 nM

**Q.** For CC(C)[C@H](NS(=O)(=O)c1ccc2c(c1)oc1ccc(-c3nc(C(F)(F)F)c(Cl)s3)cc12)C(=O)O [Compound 200, (S)-2-(8-(5-chloro-4-(trifluoromethyl)thiazol-2-yl)dibenzo[b,d]furan-3-sulfonamido)-3-methylbutanoic acid], which IC50 is on record?
**A.** < 1.5 nM

**Q.** For Cc1nc(C)c(-c2ccc3oc4cc(S(=O)(=O)N[C@H](C(=O)O)C(C)C)ccc4c3c2)s1 [Compound 201, (S)-2-(8-(2,4-dimethylthiazol-5-yl)dibenzo[b,d]furan-3-sulfonamido)-3-methylbutanoic acid], which IC50 is on record?
**A.** < 1.5 nM
